Calls of active or inactive are those of the source.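 Rule for the calls: active = compounds giving half or more protection of infected cells from virus-caused growth loss, again on retest; inactive = the rest.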
Tested on: CEM cells HIV-1 protection, formazan growth assay
Experiment: NCI AIDS Antiviral Assay
Conditions: for IC50: measured here: growth of uninfected CEM cells
Summary of the method: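 Human CEM cells, uninfected and HIV-1-infected, exposed to five drug concentrations; growth measured by soluble formazan assay and scored as percent protection from infection, with protecting compounds retested.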

SMILES	EC50 [µM]	IC50 [µM]	outcome
O=c1[nH]n(CCc2ccccn2)c(=O)c2ccccc12	> 200	> 200	–
CC(C)=CCC1=C(O)C(CC=C(C)C)(CC=C(C)C)C(=O)C(C(=O)C(C)C)=C1O	> 33.9	7.08	–
OCC(Oc1ccccc1)C(O)C(O)C(CO)Oc1ccccc1 (stereo unspecified)	> 200	> 200	–
CN(C(=S)Nc1ccccc1)c1cc(N2CCCC2)ccn1	> 200	29.5	–
CC(=O)Nc1cc2c(cc1[N+](=O)[O-])-c1ccccc1C2=O	> 200	> 200	–
O=C1C2CCC(N1c1ccc(F)cc1)n1c(=O)n(-c3ccccc3)c(=O)n12 (stereo unspecified)	–	–	inactive
CCN(CC)CCOc1ccc(/C(C#N)=C/c2ccc(OCCN3CCCCC3)cc2)cc1	> 200	0.832	–
CCCCC1(C(=O)OCC)OC12CCCCC2 (stereo unspecified)	> 200	> 200	–
N#Cc1ccc(C2OCC3CC=CCC3CO2)cc1 (stereo unspecified)	> 53.7	> 53.7	–
CC(=O)N1C(OC(C)C)CC(C)N1c1ccccc1 (stereo unspecified)	> 200	> 200	–
CN(C)c1cccc2c(S(=O)(=O)NCCN)cccc12	> 200	174	–
NC1=CN(CCCO)C2=N/C(=C\c3ccccc3)C(=O)N12	> 200	> 200	–
CC(C)(CO)C(O)C(=O)NCCCO (stereo unspecified)	> 200	> 200	–
CN(C(=O)C12C3C4C1C1C4(C(=O)C45C6C7C4C4C5C6C74C)C3C12C)C(C)(C)C (stereo unspecified)	–	–	inactive
C/C(=N\NC(=S)N1CC2CCC(CC2)C1)c1cccc(C)n1	> 31.6	0.55	–
O=C(NO)Nc1ccc(Cl)cc1	–	251	inactive
O=C1Nc2ccc(Cl)cc2C(=O)N2CCC[C@@H]12	> 200	> 200	–
CC(=N/NC(=S)N1CCCCC1)/C(C)=N\NC(=S)N1CCCCC1	> 200	2.24	–
COP(=O)(OC)/C(=C\C1=CN(C(c2ccccc2)(c2ccccc2)c2ccccc2)CN1)NC=O	> 200	21.4	–
COC(=O)C1=C(c2ccc3c(c2)OCO3)OC(c2ccc3c(c2)OCO3)C1 (stereo unspecified)	–	–	inactive
COC(=O)CCC(=O)c1ccc2c(c1)CC1(C2)Cc2ccc3c(c2C1)CCCC3=O (stereo unspecified)	> 200	8.51	–

SMILES	EC50 [µM]	IC50 [µM]	outcome
O=C(/C=C/c1ccco1)N1CCN(Cc2ccccc2)CC1	> 282	263	–
CN(C)c1ccc(/C=C(\NC(=O)c2ccccc2)C(=O)Nc2cccc(C(=O)NCCCO)c2)cc1	> 200	> 200	–
C[N+](C)(C)C.[C-]#[O+].[C-]#[O+].[C-]#[O+].[C-]#[O+].[Cr].c1ccc(N=N[N-]c2ccccc2)cc1	> 1.26	> 1.26	–
C[S+](C)CCS(=O)(=O)[O-]	> 200	> 200	–
Cc1c(CCCl)c(N=P(c2ccccc2)(c2ccccc2)c2ccccc2)n2c(nc3ccccc32)c1C#N	> 200	> 200	–
COCn1c2ccc(OC(C)=O)cc2c2c(=O)oc(C)nc21	> 200	170	–
C[n+]1c2ccccc2c(NC(CS)C(=O)O)c2ccccc21 (stereo unspecified)	–	–	inactive
CCSC1=N/C(=C/c2ccccc2O)C(=O)N1	> 200	123	–
CCC1(CC=C(C)C)Oc2cccnc2-n2cccc2C1=O (stereo unspecified)	> 200	117	–
CC(C)(C)c1cc(CCCCCCCC2(CCCCCCCc3cc(C(C)(C)C)cc(C(C)(C)C)c3)OC(COCCOCCCCCC#N)C(COCCOCCCCCC#N)O2)cc(C(C)(C)C)c1 (stereo unspecified)	–	–	inactive
O=C(O)/C=C\C(=O)Nn1c(Cc2ccc(Cl)cc2)n[nH]c1=O	> 200	> 200	–
Cc1c(O)c(OC2OC(CO)C(O)C(O)C2O)cc2c1CC[C@@H]1C2(C)C(=O)C[C@]2(C)[C@@H]([C@@](C)(O)C3CCC(C)(C)O3)[C@H](O)C[C@@]12C (stereo partly specified)	> 200	> 200	–
Cc1c(C(=O)NCCO)[n+](=O)c2cc(Cl)ccc2n1[O-]	> 832	56.2	–
C=CCCCCCCCCC(=O)NCc1ccncc1	> 200	97.7	–
C[C@@]12[Se]c3ccccc3[C@]1(C)[Se]c1ccccc12	–	–	inactive
CCOC(=O)Cc1ccc(Nc2nc3cc(C(F)(F)F)ccc3nc2C(=O)OCC)cc1	> 100	> 100	–
Cn1c(-c2ccc(/C=N/N=C(\N)N/N=C/c3ccc(-c4c[n+]5ccsc5n4C)cc3)cc2)c[n+]2ccsc12	6.03	120	–
CCOC(=O)C(CN1CCN(CC(NC=O)(C(=O)OCC)C(=O)OCC)CC1)(NC=O)C(=O)OCC	> 200	35.5	–
CCS(=O)(=O)CCn1cnc2c1c(=O)n(C)c(=O)n2C	> 200	> 200	–
S=C(SSC(=S)N(Cc1ccccc1)Cc1ccccc1)N(Cc1ccccc1)Cc1ccccc1	> 200	15.1	–
O=c1n(-c2ccccc2)c(=O)n2n1C1CCC2CC1	> 200	> 200	–

SMILES	EC50 [µM]	IC50 [µM]	outcome
COC(=O)Cc1c2c3n(c(=O)c1-n1[nH]c(=O)n(-c4ccc(Cl)cc4)c1=O)CCN3CCC2	> 200	> 200	–
O=c1[nH][nH]c(=O)c2c1[nH]c(=S)n2Cc1ccccc1	> 912	> 912	–
CNC(=O)OCC1=CC(=O)C(OC)=CC1=O	> 200	10	–
CC(=O)Nc1ccc(OC(C)(C)C)cc1	> 1200	> 1200	–
Cc1cccc(N=Nc2c(C)nn(C(=O)CC(=O)Nc3ccc(Cl)cc3)c2C)c1	> 200	123	–
c1ccc2oc(-c3ccc(-c4nc5ccccc5o4)c4c3CC4)nc2c1	> 50.1	> 50.1	–
O=C1C(Br)=C(C2=CC(=P(c3ccccc3)(c3ccccc3)c3ccccc3)C=C2)C(=O)C(Br)=C1C1=CC(=P(c2ccccc2)(c2ccccc2)c2ccccc2)C=C1	> 50.1	> 50.1	–
Clc1ncc(Cl)c(Cl)n1	–	–	inactive
CC1CC(=O)Nc2nc3ccccc3n21 (stereo unspecified)	> 200	> 200	–
CCNC(=O)Cc1nc2c(N)ncnc2n1C1OC(CO)C(O)C1O (stereo unspecified)	> 200	81.3	–
O=C(Nc1ccc(S(=O)(=O)c2ccc(NS(=O)(=O)Cc3ccccc3[N+](=O)[O-])cc2)cc1)c1ccccc1SSc1ccccc1C(=O)Nc1ccc(S(=O)(=O)c2ccc(NS(=O)(=O)Cc3ccccc3[N+](=O)[O-])cc2)cc1	28.2	> 200	–
CC(=O)C[P+](c1ccccc1)(c1ccccc1)c1ccccc1	> 200	61.7	–
ClCCNCCNCCCl.O=c1cccccc1[O-].O=c1cccccc1[O-].[Co+3].[O-][Cl+3]([O-])([O-])[O-]	> 200	5.01	–
Cc1ccc2nc(-c3ccccc3Cl)[nH]c2c1	14.8	29.5	–
COc1cc(NCC2COc3c(ccc(OC)c3OC)C2=O)c([N+](=O)[O-])cc1OC (stereo unspecified)	> 200	186	–
O=c1c(O)c(-c2cc(O)c(O)cc2O)oc2cc(O)c(C3OC(CO)C(O)C(O)C3O)c(O)c12 (stereo unspecified)	> 200	138	–
Cc1ccc2c(c1)C(=O)C1(Cc3ccccc3C1=O)C2 (stereo unspecified)	> 200	> 200	–
Cc1ncc([N+](=O)[O-])n1CCNC(=O)CCCn1cnc([N+](=O)[O-])n1	> 200	> 200	–
COc1ccc(S(=O)(=O)N(C)CC(=O)O)cc1	–	–	inactive
CCSCCCCCCCCCCC(=O)OCC1OC(n2cc(C)c(=O)[nH]c2=O)CC1O (stereo unspecified)	> 56.2	26.3	–
Fc1c(F)c(F)c2c(c1F)CSc1nc3ccccc3n1-2	> 200	> 200	–

SMILES	EC50 [µM]	IC50 [µM]	outcome
CNC(=S)N/N=C(\C)c1cc(OC)c(OC)cc1O	> 200	> 200	–
COc1oc(C2C/C(=C/C(C)=C/C(C)=C/C(C)=C/c3ccc([N+](=O)[O-])cc3)CO2)c(C)c(=O)c1C (stereo unspecified)	> 38.9	10	–
CCOC(=O)C(CC1COc2ccccc2O1)C(=O)OCC (stereo unspecified)	–	–	inactive
CN1CCN(c2ccc3nc(-c4ccc5nc(-c6ccc(O)cc6)[nH]c5c4)[nH]c3c2)CC1	> 501	3.89	–
O=C1/C(=C/c2ccc(Cl)cc2)NC(=S)N1CN1CCOCC1	> 200	32.4	–
O=C1CN(Cc2ccccc2)CC(=O)N2Cc3ccccc3CN12	–	–	inactive
[N-]=[N+]=NI1OC(=O)c2ccccc21	> 200	55	–
O=C(Nc1ccc(Cl)cc1)c1cc2cc(N=Nc3ccccc3Cl)ccc2oc1=O	> 16.6	> 16.6	–
Clc1ccc(OCc2nc3ccccc3[nH]2)cc1	> 200	162	–
Cc1ccc(OCC2OC(n3cnc4c(N(C)C)nc(Br)nc43)CC2Oc2ccc(C)cc2)cc1 (stereo unspecified)	> 200	31.6	–
CCCCCCCCCC(=O)CC(=O)c1c(O)cccc1O	> 23.4	> 23.4	–
COc1ccccc1NC(=O)CC(=O)N1N=C(N2c3ccccc3Sc3ccccc32)CC1c1ccccc1 (stereo unspecified)	> 200	> 200	–
CC1(C)C(=O)/C(=C/c2ccccc2)C(C)(C)C1(C)C	–	–	inactive
O=C(Nc1nc2ncn(CCNCCn3cnc4nc(NC(=O)c5ccccc5)[nH]c(=O)c43)c2c(=O)[nH]1)c1ccccc1	> 23.4	> 23.4	–
CC(=O)O[C@H]1CC[C@@]2(C)C(=CC[C@@H]3C2CC[C@@]2(C)C3CC[C@@H]2c2ncc(C)s2)C1 (stereo partly specified)	> 60.3	> 60.3	–
CCCCCN(CCCCC)C(=O)COc1cc2c(O)c3c(O)c(C)c4c(c13)C(=O)C(C)(O/C=C/C(OC)C(C)C(OC(C)=O)C(C)C(O)C(C)C(O)C(C)/C=C/C=C(\C)C(=O)N2)O4 (stereo unspecified)	> 200	7.76	–
CN=C(NC#N)NCCSCc1nc[nH]c1C	> 389	> 389	–
CC12CCC(CC(=O)/C1=C(/Br)I)C2(C)C (stereo unspecified)	> 200	36.3	–
CCOc1ccc(N=Nc2ccc3oc(=O)c(/C(C)=N\NC(=O)CC(=O)Nc4ccc(Cl)cc4)cc3c2)cc1	> 13.2	> 13.2	–
O=C(O)c1cc([N+](=O)[O-])cc([N+](=O)[O-])c1/C=C/n1c(=S)[nH]c2ccc([N+](=O)[O-])cc21	> 100	91.2	–
Cc1nc2c(ccc3[nH]c4ccccc4c32)s1	–	–	inactive

— PubChem BioAssay AID179 (DTP/NCI, 2004)
